In ChEMBL document CHEMBL2407078, “Indole-diterpenoids with anti-H1N1 activity from the aciduric fungus Penicillium camemberti OUCMDZ-1492” (J Nat Prod, 2013):

Test system: Influenza A virus (A/Puerto Rico/8/1934(H1N1))
Test: Antiviral activity against Influenza A virus (A/Puerto Rico/8/34(H1N1)) PR/8 infected in MDCK cells assessed as protection against virus-induced cytopathogenicity after 48 hrs by crystal-violet staining-based assay
Type: functional, organism-based
Settings: PR/8, MDCK

Row | Compound | IC50
1 | CC(C)(O)[C@H]1O[C@H]2CC[C@@]3(C)[C@@H](CC[C@H]4Cc5c([nH]c6ccccc56)[C@@]43C)C2=CC1=O [DEHYDROXYPAXILLINE] | > 150 µM
2 | CC(C)(O)[C@@H]1CC=C2[C@H](CC[C@@]3(C)[C@H]2CC[C@H]2Cc4c([nH]c5ccccc45)[C@@]23C)O1 | 28.3 µM
3 | CC(C)=CCc1cc2[nH]c3c(c2cc1CC=C(C)C)C[C@@H]1CC[C@@]2(O)C4=CC(=O)[C@@H](C(C)(C)O)O[C@H]4CC[C@]2(C)[C@@]31C | 73.3 µM
4 | CC(C)=CCc1ccc2[nH]c3c(c2c1)C[C@@H]1CC[C@@]2(O)C4=CC(=O)[C@@H](C(C)(C)O)O[C@H]4CC[C@]2(C)[C@@]31C | 6.6 µM
5 | CC(C)(O)[C@@H]1CC[C@]2(C(=O)O)[C@H](CC[C@@]3(C)[C@H]2CC[C@H]2Cc4c([nH]c5ccccc45)[C@@]23C)O1 | 38.9 µM
6 | CC(C)(O)[C@@H]1CC[C@]2(C)[C@H](CC[C@@]3(C)[C@H]2CC[C@H]2Cc4c([nH]c5ccccc45)[C@@]23C)O1 [PASPALINE] | 77.9 µM
7 | CC(C)=CCC[C@]1(C)[C@@H](O)CC[C@@]2(C)[C@H]1CC[C@H]1Cc3c([nH]c4ccccc34)[C@@]12C [EMINDOLE SB] | 26.2 µM
8 | NC(=O)c1ncn([C@@H]2O[C@H](CO)[C@@H](O)[C@H]2O)n1 [RIBAVIRIN] | 113 µM
9 | CC(C)=CCC[C@](C)(O)[C@H](O)CC/C(C)=C/CC/C(C)=C/Cc1c[nH]c2ccccc12 | 34.1 µM
10 | CC(O)(CO)[C@H]1O[C@H]2CC[C@@]3(C)[C@@](O)(CC[C@H]4Cc5c([nH]c6ccccc56)[C@@]43C)C2=CC1=O (some centres not stated) | 125 µM
11 | CC(C)(O)[C@H]1O[C@H]2CC[C@@]3(C)[C@@H](CC[C@H]4Cc5c([nH]c6ccccc56)[C@@]43C)[C@]2(O)[C@H](O)[C@H]1O | 32.2 µM
12 | CC(C)(O)[C@H]1O[C@H]2CC[C@@]3(C)[C@@](O)(CC[C@H]4Cc5c([nH]c6ccccc56)[C@@]43C)C2=CC1=O [PAXILLINE] | 17.7 µM
